Assays:
[1] = tested on: Differentiated U937 cells; test: MTT assay: cell viability; type: cell-based, human; conditions: 1 μg/ml; for d-U937 MTT Assay 4 h: 5% FCS; for d-U937 MTT Assay 24 h: 10% FCS
Description: Differentiated U937 cells were pre-incubated with each test compound under two protocols: the first for 4 hr in 5% FCS and the second in 10% FCS for 24 h. The supernatant was replaced with 200 μL of new media and 10 μL of MTT stock solution (5 mg/mL) was added to each well. After incubation for 1 hr the media were removed, 200 μL of DMSO was added to each well and the plates were shaken lightly for 1 hr prior to reading the absorbance at 550 nm. The percentage loss of cell viability was calculated for each well relative to vehicle (0.5% DMSO) treatment. Consequently an apparent increase in cell viability for drug treatment relative to vehicle is tabulated as a negative percentage.

[2] = molecular target: p38 MAPK alpha (MAPK14) (Homo sapiens (Human), UniProt Q16539); test: Enzyme inhibition assay (FRET, Z-LYTE), p38 MAPK alpha via MAPKAP-K2 activation; type: biochemical; conditions: read-out: Enzyme Profile: IC50 Values p38α
Description: (§1) The enzyme inhibitory activity of test compounds was determined by fluorescence resonance energy transfer (FRET) using synthetic peptides labelled with both donor and acceptor fluorophores (Z-LYTE, Invitrogen). Recombinant, phosphorylated p38 MAPK γ (MAPK12:Millipore) was diluted in HEPES buffer, mixed with compound at the desired final concentrations and incubated for 2 hr at RT. The FRET peptide (2 μM) and ATP (100 μM) were next added to the enzyme/compound mixture and incubated for 1 hr. Development reagent (protease) was added for 1 hr prior to detection in a fluorescence microplate reader. The site-specific protease only cleaves non-phosphorylated peptide and eliminates the FRET signal. Phosphorylation levels of each reaction were calculated using the ratio of coumarin emission (donor) over fluorescein emission (acceptor) with high ratios indicating high phosphorylation levels and low ratios indicating low phosphorylation levels.
For p38 MAPK alpha (MAPK14: Invitrogen), enzyme activity was evaluated indirectly by determining activation/phosphorylation of the down-stream molecule, MAPKAP-K2. The p38 MAPK a protein was mixed with compound for 2 hr at RT. […] Development reagent was then added and the mixture incubated for 1 hr before detection by fluorescence completed the assay protocol.
The enzyme inhibitory activity of compound was determined by fluorescence resonance energy transfer (FRET) using synthetic peptides labelled with both donor and acceptor fluorophores (Z′-LYTE, Invitrogen).

[3] = tested on: TNFα release in d-U937 cells; test: LPS-induced TNFα release in d-U937 cells; type: cell-based; conditions: Homo sapiens, dU937, LPS 0.1 μg/mL, 4 hr, relative to 10 μg/mL BIRB796, read-out: d-U937 (LPS) TNFα REC50
Description: (§2) U937 cells, a human monocytic cell line, were differentiated to macrophage-type cells by incubation with phorbol myristate acetate (PMA; 100 ng/mL) for 48 to 72 hr, whereupon the cells become adherent. […] Coli: O111:B4, Sigma) for 4 hr. The supernatant was collected for determination of TNFα and IL-8 concentrations by sandwich ELISA (Duo-set, R&D systems). […] The relative 50% effective concentration (REC50) was determined from the resultant concentration-response curve. The inhibition of IL-8 production was calculated at each concentration of test compound by comparison with vehicle control.

[4] = tested on: ICAM-1 expression in BEAS2B cells; test: Poly I:C-induced ICAM-1 induction in BEAS2B cells; type: cell-based; conditions: Homo sapiens, BEAS-2B; BEAS2B cells, poly I:C 1 μg/mL, 18 hr; read-out: BEAS2B (polyIC) ICAM1 IC50
Description: Poly I:C (1 μg/mL) (Invivogene Ltd., San Diego, Calif.) was transfected into BEAS2B cells (human bronchial epithelial cells, ATCC) with Oligofectamine (Invitrogen, Carlsbad, Calif.). Cells were pre-incubated with final concentrations of test compounds for 2 hr and the level of ICAM1 expression on the cell surface was determined by cell-based ELISA. […] The cells were washed with PBS-Tween and incubated with the secondary antibody (HRP-conjugated anti-rabbit IgG, Dako Ltd., Glostrup, Denmark).

[5] = molecular target: cSrc enzyme (Homo sapiens (Human), UniProt P12931); test: c-SRC enzyme inhibition assay (FRET, Z'-LYTE); type: biochemical; conditions: read-out: Enzyme Profile: IC50 Values cSrc
[6] = tested on: HRV16; test: Rhinovirus-titre assay; type: cell-based, human rhinovirus; conditions: HRV16; for inhibition at 0.04 µg/mL: Human rhinovirus sp., cell not marked b, test compounds 0.04 μg/mL per method (footnote b, 0.2 μg/mL), read-out: HRV titre (inhibitory %): % inhibition observed vs. HRV16 infection control
Description: MRC5 cells (human lung fibroblast, ATCC) were infected with 1 MOI (multiplicity of infection of 1.0) of HRV16 and incubated for 1 hr at 33° C. with gentle shaking to stimulate adsorption. The cells were then washed with PBS, fresh media was added and the cells were incubated for a further 96 hr. The supernatant was collected and 10-fold serial dilutions of virus containing supernatant were prepared. All titrations were performed by infecting confluent Hela cell monolayers with serially diluted supernatant (10^−1-10^−5) and assessing the cytopathic effect by visual inspection 4 days after infection. The amount of virus required to infect 50% of Hela cells was calculated in each treatment as TCID50. Test compounds (0.04 μg/mL) were added 2 hr before HRV infection and 1 hr after infection when non-infected HRV was washed out. The anti-HRV activity of each test compound was determined as the difference of the log TCID50 of HRV16 in the presence of the compound with the log TCID50 of HRV16 in the absence of compound. […]

[7] = tested on: IL-8 release in d-U937 cells; test: LPS-induced IL-8 release in d-U937 cells; type: cell-based; conditions: Homo sapiens, dU937; d-U937 cells, LPS 0.1 μg/mL, 4 hr; read-out: d-U937 (LPS) IL-8 IC50
Description: as §2

[8] = molecular target: HCK enzyme (Homo sapiens (Human), UniProt P08631); test: HCK enzyme inhibition assay (FRET, Z'-LYTE); type: biochemical; conditions: read-out: Enzyme Profile: IC50 Values HCK
[9] = tested on: TNFα release in THP-1 cells; test: LPS-induced TNFα release in THP-1 cells; type: cell-based; conditions: Homo sapiens; THP-1 cells, LPS 3 μg/mL, 4 hr; read-out: THP1 (LPS) TNFα IC50
Description: The inhibition of TNFα production was calculated at each concentration by comparison with vehicle control.

[10] = molecular target: p38 MAPK γ (MAPK12) (Homo sapiens (Human), UniProt P53778); test: Enzyme inhibition assay (FRET, Z-LYTE), p38 MAPK gamma; type: biochemical; conditions: read-out: Enzyme Profile: IC50 Values p38γ
Description: as §1

Row | SMILES | IC50 [2] | EC50 [3] | IC50 [5] | IC50 [7] | IC50 [8] | IC50 [9] | IC50 [10] | d-U937 MTT Assay 4 h [1] | d-U937 MTT Assay 24 h [1] | IC50 [4] | inhibition at 0.04 µg/mL [6] | NBEC (HRV) HRV titre Relative anti-viral activity ([6]; at 0.04 μg/mL vs. pleconaril at 0.1 μg/mL)
1 | COc1ccc(-n2nc(C(C)(C)C)cc2NC(=O)Nc2ccc(Oc3ccnc4[nH]c(=O)[nH]c34)c3ccccc23)cc1 [Example 9] | 21 nM | 3.1 nM | 7 nM | 27 nM | < 2 nM | 1.6 nM | 119 nM | − (− and + indicate the result is below and above the no significant effect threshold, respectively (<30% inhibition at a concentration of 1 μg/ml)) | − (− and + indicate the result is below and above the no significant effect threshold, respectively (<30% inhibition at a concentration of 1 μg/ml)) | 24 nM | 36% | 3.2
2 | COc1ccc(-n2nc(C(C)(C)C)cc2NC(=O)Nc2ccc(Oc3ccnc4[nH]c(=O)n(C)c34)c3ccccc23)cc1 [Example 10] | 6 nM | 1.3 nM | 7 nM | 1 nM | 3 nM | 0.6 nM | 45 nM | − (− and + indicate the result is below and above the no significant effect threshold, respectively (<30% inhibition at a concentration of 1 μg/ml)) | − (− and + indicate the result is below and above the no significant effect threshold, respectively (<30% inhibition at a concentration of 1 μg/ml)) | 6 nM | 91% | 
3 | CCn1c(=O)[nH]c2nccc(Oc3ccc(NC(=O)Nc4cc(C(C)(C)C)nn4-c4ccc(OC)cc4)c4ccccc34)c21 [Example 11] | 2 nM | 0.7 nM | 9 nM | 1.6 nM | 5 nM | 4 nM | 348 nM | − (− and + indicate the result is below and above the no significant effect threshold, respectively (<30% inhibition at a concentration of 1 μg/ml)) | − (− and + indicate the result is below and above the no significant effect threshold, respectively (<30% inhibition at a concentration of 1 μg/ml)) | 3.6 nM | 60% | 
4 | COc1ccc(-n2nc(C(C)(C)C)cc2NC(=O)Nc2ccc(Oc3ccnc4[nH]c(=O)n(C(C)C)c34)c3ccccc23)cc1 [Example 12] | 11 nM | 0.5 nM | 12 nM | 1.1 nM | 8 nM | 1.3 nM | 495 nM | − (− and + indicate the result is below and above the no significant effect threshold, respectively (<30% inhibition at a concentration of 1 μg/ml)) | − (− and + indicate the result is below and above the no significant effect threshold, respectively (<30% inhibition at a concentration of 1 μg/ml)) | 1.9 nM | 94% | 

Second part, led by results:

Row | IC50 [2] | EC50 [3] | IC50 [5] | IC50 [7] | IC50 [8] | IC50 [9] | IC50 [10] | SMILES | d-U937 MTT Assay 4 h [1] | d-U937 MTT Assay 24 h [1] | IC50 [4] | inhibition at 0.04 µg/mL [6] | NBEC (HRV) HRV titre Relative anti-viral activity ([6]; at 0.04 μg/mL vs. pleconaril at 0.1 μg/mL)
5 | 2 nM | 6.2 nM | 5 nM | 4.1 nM | 3 nM | 13 nM | 43 nM | CC(C)(C)c1cc(NC(=O)Nc2ccc(Oc3ccnc4[nH]c(=O)cnc34)c3ccccc23)n(-c2ccccc2)n1 [Example 5, 1-(3-(tert-butyl)-1-phenyl-1H-pyrazol-5-yl)-3-(4-((3-oxo-3,4-dihydropyrido[2,3-b]pyrazin-8-yl)oxy)naphthalen-1-yl) urea] | − (− and + indicate the result is below and above the no significant effect threshold, respectively (<30% inhibition at a concentration of 1 μg/ml)) | − (− and + indicate the result is below and above the no significant effect threshold, respectively (<30% inhibition at a concentration of 1 μg/ml)) | 6.6 nM | 36% | 
6 | 3 nM | 1.7 nM | 7 nM | 4.2 nM | 3 nM | 7 nM | 100 nM | Cc1nc2c(Oc3ccc(NC(=O)Nc4cc(C(C)(C)C)nn4-c4ccccc4)c4ccccc34)ccnc2[nH]c1=O [Example 7, 1-(3-(tert-butyl)-1-phenyl-1H-pyrazol-5-yl)-3-(4-((2-methyl-3-oxo-3,4-dihydropyrido[2,3-b]pyrazin-8-yl)oxy)naphthalen-1-yl)urea] | − (− and + indicate the result is below and above the no significant effect threshold, respectively (<30% inhibition at a concentration of 1 μg/ml)) | − (− and + indicate the result is below and above the no significant effect threshold, respectively (<30% inhibition at a concentration of 1 μg/ml)) | 3 nM | 60% | 
7 | 7 nM | 0.3 nM | 7 nM | 1.7 nM | 5 nM | 2.5 nM | 99 nM | Cc1ccc(-n2nc(C(C)(C)C)cc2NC(=O)Nc2ccc(Oc3ccnc4[nH]c(=O)c(C)nc34)c3ccccc23)cc1 [Example 8, 1-(3-(tert-butyl)-1-(p-tolyl)-1H-pyrazol-5-yl)-3-(4-((2-methyl-3-oxo-3,4-dihydropyrido[2,3-b]pyrazin-8-yl)oxy)naphthalen-1-yl)urea] | − (− and + indicate the result is below and above the no significant effect threshold, respectively (<30% inhibition at a concentration of 1 μg/ml)) | − (− and + indicate the result is below and above the no significant effect threshold, respectively (<30% inhibition at a concentration of 1 μg/ml)) | 0.6 nM | 91% | 
